The values below come from patent EP3595655B1, “THERAPEUTIC DOSAGE AND REGIMEN FOR MELATONIN” (Chiesi Farmaceutici S.p.A., priority 2017, dated 2018).

Data set [1] is described as follows: Plasma melatonin levels in piglets (direct radioimmunoassay). Format: in vivo. To be noted: melatonin-treated piglets; therapeutic range from Robertson et al. 2013.
Data set [2] relates to rat organotypic hippocampal slice cultures. Description: Oxygen-glucose deprivation (OGD) in organotypic hippocampal slice cultures, cell death by propidium iodide incorporation. The format is cell-based. To be noted: for Cell death, estimated by propidium iodide incorporation, induced by OGD: OGD alone 90.8 ± 7.6%. An excerpt: Concentration-response studies were aimed at detecting the range of concentration of melatonin resulting in neuroprotection against oxygen-glucose deprivation (OGD), an experimental model simulating hypoxia-ischemia and reperfusion. Ischemia was simulated in vitro by anoxia combined with a glucose-free media (OGD) in rat organotypic hippocampal slice cultures.

Data set [3] is described as follows: Solubilisation of melatonin with Captisol, with or without PEG, in different vehicles. Format: physicochemical. To be noted: Captisol solutions in WFI, glucose 10% solution or phosphate buffer. How it is done: The first set of experiments was aimed to assess the possibility to solubilise melatonin with different quantity of sulfobutylether-β-cyclodextrin (Captisol™). The test was performed by the addition of melatonin. In the solution containing the Captisol at different concentrations up to presence of undissolved material on the bottom; the solution was filtered and analysed. These tests were performed with three different vehicles: water for injection (WFI), glucose 10% solution and phosphate buffer. In a second set of experiments, PEG with different molecular weights (PEG 300 and PEG 400) was added to verify the possibility to reduce the amount of Captisol used for the dissolution. The results of the first set of experiments, were obtained measuring the assay in formulation at the higher solubility limits having on the bottom some undissolved particles. […] Captisol concentration of 5% was identified as a suitable one, and confirmed by the other results.

For data set [4], the system named is piglet model of neonatal asphyxia. To be noted: for NTP/epp (whole forebrain, 9.4T MRS): 24h after hypoxia-ischaemia, melatonin 15 mg/kg i.v. over 6h at 2h and 26h plus cooling, p=0.038; for cell death (TUNEL positive cells) in the sensorimotor cortex: p<0.003, p=0.003 (Fig. 4).
Experimental: Objective: To assess neuroprotection of intravenous melatonin (15 mg/kg) infused slowly over 6h (2.5 mg/kg/h) initiated 2 h after hypoxia-ischaemia in a piglet model of neonatal asphyxia (Fig. 1). Primary outcome measures were TUNEL immuno-labelling of cell death over 9 brain regions (Fig. 2). Secondary outcomes were amplitude-integrated electroencephalography(aEEG) recovery, and magnetic resonance spectroscopy (MRS) biomarkers (NTP/epp and lactate/N acetyl aspartate).
During hypoxia-ischemia the β-NTP peak height was continuously monitored using in-house Matlab (Mathworks) software. At the point at which β-NTP had fallen to 50% of its baseline value, FiO2 was increased to 9%. […] The head was immobilized in a stereotactic frame for MRS acquisition. […] After surgical preparation, multichannel six-lead EEG monitoring (Nicolet, Care Fusion, Wisconsin, USA) was acquired at baseline and throughout the periods between MRS data acquisitions. Filtered amplitude-integrated EEG recordings were classified according to the pattern classification. A score of 0 was flat trace; 1, continuous low voltage; 2, burst suppression; 3, discontinuous normal voltage; and 4, continuous normal voltage, at baseline and then every hour after hypoxia-ischemia. […] Blood samples were collected in lithium/heparin tubes and centrifuged immediately after collection. Plasma was separated and then stored at - 20°C before analysis. Melatonin was routinely measured by direct radioimmunoassay.
Data set [5] concerns newborn piglets. To be noted: intravenous 5 mg/kg/h over six hours (30 mg/kg), 10 minutes after resuscitation; cited from earlier work.

SMILES strings stand for the structures. Entries after “also recorded” stand apart in the source; their conditions may differ. Read-outs that look alike come from different tables or passages of the source.

Consider `COc1ccc2[nH]cc(CCNC(C)=O)c2c1` [melatonin, N-[2-(5-Methoxy-1H-indol-3-yl)ethyl] acetamide], for which the plasma levels entry in data set [1] is reported as “within the expected therapeutic range”. The “Cell death, estimated by propidium iodide incorporation, induced by OGD” value in data set [2] (3 µM melatonin) is 57.6 ± 6.9%; in data set [2] (10 µM melatonin), 60.9 ± 7.4%; in data set [2] (25 µM melatonin) it was 47.3 ± 3.8%; in data set [2] (50 µM melatonin) it was 38.9 ± 4.2%. For the same molecule, in data set [2] (all doses tested with the exception of 1 uM, p<0.01 Dunnet's test after ANOVA), the “statistical analysis of the effect on OGD-induced cell death” value is on record as “significant effect”. In data set [2] (hippocampal slice cultures of neonatal rats, 1-50 µM), the “reduction of OGD-induced cell death” value is listed as “concentration-dependent manner”. In data set [3], the “influence of glucose or buffer as vehicle on solubility” value is reported as “does not influence the solubility”. In addition, in data set [4] (24 and 48h after hypoxia-ischaemia), the “3T MRS: NTP/epp and PCr/Pi in whole forebrain, Lac/NAA in thalamus and white matter” value is “no difference in any ratio”. For the same molecule, the “NTP/epp (whole forebrain, 9.4T MRS)” value in data set [4] (versus vehicle) is reported as “ameliorated the NTP/ePP decline”; in data set [4] (versus vehicle, listed as Melatonin), “higher”. Also, the “9.4T MRS: NTP/epp and PCr/Pi in whole forebrain, Lac/NAA in thalamus and white matter” value in data set [4] (baseline, 24 and 48h after hypoxia-ischaemia, melatonin 5 and 15 mg/kg groups versus vehicle, apart from 24h NTP/epp) is “no difference”. The “group mean hourly aEEG scores” value in data set [4] (between groups at any time point) is “no difference”. Besides, the brain protection entry in data set [4] (melatonin 5 mg/kg/24h i.v. over 6h started 2h after hypoxia-ischaemia plus cooling) is on record as “no protection”. Moreover, the “cell death (TUNEL positive cells) in the sensorimotor cortex” value is “significant protection; also recorded: significant reduction in TUNEL positive cells” in data set [4] (melatonin 15 mg/kg/24h i.v. over 6h started 2h after hypoxia-ischaemia plus cooling, versus vehicle, 48h) and “reduced cell death” in data set [4] (melatonin 15 mg/kg/24h i.v. over 6h started 2h after hypoxia-ischaemia plus cooling, versus vehicle, 48h, listed as Melatonin). The “cell death (TUNEL positive cells) across the whole brain” value in data set [4] (melatonin 15 mg/kg/24h i.v. over 6h started 2h after hypoxia-ischaemia plus cooling, versus vehicle, 48h, p=0.068, p=0.069 (Fig. 4)) is listed as “trend of reduced cell death; also recorded: trend to overall brain reduced TUNEL positive cells; also recorded: trend towards reduced TUNEL positive cells”. In addition, in data set [4] (piglets, melatonin i.v. infusion plus cooling), the “physiological parameters monitored, including mean arterial pressure and inotrope use” value is given as “did not affect”. Moreover, in data set [5], the hypothermic neuroprotection result is recorded as “increases hypothermic neuroprotection”.
